Molecular target: T1, Orexin/Hypocretin receptor type 1 (Homo sapiens, UniProt O43613)
T1 sequence (O43613 whole entry): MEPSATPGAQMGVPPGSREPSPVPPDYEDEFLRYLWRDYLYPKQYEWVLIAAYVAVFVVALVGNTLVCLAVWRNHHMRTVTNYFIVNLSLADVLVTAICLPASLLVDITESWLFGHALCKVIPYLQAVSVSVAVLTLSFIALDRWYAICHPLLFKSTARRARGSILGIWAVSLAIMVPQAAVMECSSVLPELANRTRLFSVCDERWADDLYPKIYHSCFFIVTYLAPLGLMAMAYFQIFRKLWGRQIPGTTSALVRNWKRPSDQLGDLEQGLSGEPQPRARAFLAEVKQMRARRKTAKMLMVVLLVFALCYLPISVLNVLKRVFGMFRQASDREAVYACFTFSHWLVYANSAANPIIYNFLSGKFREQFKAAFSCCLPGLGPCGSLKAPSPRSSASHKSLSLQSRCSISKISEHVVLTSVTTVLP
Experiment: Displacement of [3H]-4-(2,6-Difluoro-4-methoxybenzyl)-2-(5,6-dimethoxypyridin-3-yl)-2H-1,2,4-benzothiadiazin-3(4H)-one 1,1-dioxide from orexin receptor-1 (unknown origin) after 90 mins
Conditions: not given

Ki | Compound
2.51 nM | COc1cc(F)c(CN2C(=O)N(c3cnc(OC)c(OC)c3)S(=O)(=O)c3ccccc32)c(F)c1
398 nM | COc1cc(N2C(=O)N(Cc3c(F)cc(F)cc3F)c3ccccc3S2(=O)=O)ccn1
2 nM | COc1cc(F)c(CN2C(=O)N(c3ccc(OC)c(OC)c3)S(=O)(=O)c3ccccc32)c(F)c1
50.1 nM | COc1ccc(N2C(=O)N(Cc3c(F)cc(F)cc3F)c3ccccc3S2(=O)=O)cc1OC
63.1 nM | COc1ccc(N2C(=O)N(Cc3c(F)cc(F)cc3OC)c3ccccc3S2(=O)=O)cc1OC
39.8 nM | COc1cc(N2C(=O)N(Cc3c(F)cc(F)cc3Cl)c3ccccc3S2(=O)=O)cnc1OC

Continued, compound first:

Compound | Ki
COc1ccc(N2C(=O)N(Cc3c(F)cc(F)cc3F)c3ncccc3S2(=O)=O)nc1OC | 25.1 nM
COc1ccc(N2C(=O)N(Cc3ccccc3F)c3ccccc3S2(=O)=O)cc1OC | 316 nM
CNc1cc(N2C(=O)N(Cc3c(F)cc(OC)cc3F)c3ncccc3S2(=O)=O)cnc1OC | 1.26 nM
COc1cc(F)c(CN2C(=O)N(c3cc(OC)nc(OC)c3)S(=O)(=O)c3ccccc32)c(F)c1 | 1 nM
COc1ccc(N2C(=O)N(Cc3ccccc3)c3ccccc3S2(=O)=O)cc1OC | 2000 nM

Molecular target: T2, Orexin receptor type 2 (Homo sapiens, UniProt O43614)
T2 sequence (O43614 whole entry): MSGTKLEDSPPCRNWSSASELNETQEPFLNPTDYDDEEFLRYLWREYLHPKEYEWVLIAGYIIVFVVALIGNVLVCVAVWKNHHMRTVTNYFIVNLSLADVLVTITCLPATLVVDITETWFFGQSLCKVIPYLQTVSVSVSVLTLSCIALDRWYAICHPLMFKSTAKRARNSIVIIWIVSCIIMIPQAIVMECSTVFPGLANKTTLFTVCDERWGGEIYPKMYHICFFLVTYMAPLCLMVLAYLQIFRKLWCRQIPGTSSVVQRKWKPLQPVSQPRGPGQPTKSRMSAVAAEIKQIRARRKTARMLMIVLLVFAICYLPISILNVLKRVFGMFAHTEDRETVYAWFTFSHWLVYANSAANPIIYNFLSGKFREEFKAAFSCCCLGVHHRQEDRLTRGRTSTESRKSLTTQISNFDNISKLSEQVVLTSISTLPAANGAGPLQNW
Experiment: Displacement of [3H]EMPA from human orexin receptor-2 expressed in HEK293 cells after 90 mins by scintillation counting
Assay type: cell-based
Conditions: not given

Ki | Compound
0.398 nM | COc1cc(F)c(CN2C(=O)N(c3cnc(OC)c(OC)c3)S(=O)(=O)c3ccccc32)c(F)c1
63.1 nM | COc1cc(N2C(=O)N(Cc3c(F)cc(F)cc3F)c3ccccc3S2(=O)=O)ccn1
0.501 nM | COc1cc(F)c(CN2C(=O)N(c3ccc(OC)c(OC)c3)S(=O)(=O)c3ccccc32)c(F)c1
2 nM | COc1ccc(N2C(=O)N(Cc3c(F)cc(F)cc3F)c3ccccc3S2(=O)=O)cc1OC
6.31 nM | COc1ccc(N2C(=O)N(Cc3c(F)cc(F)cc3OC)c3ccccc3S2(=O)=O)cc1OC
1.58 nM | COc1cc(N2C(=O)N(Cc3c(F)cc(F)cc3Cl)c3ccccc3S2(=O)=O)cnc1OC

Continued, compound first:

Compound | Ki
COc1ccc(N2C(=O)N(Cc3c(F)cc(F)cc3F)c3ncccc3S2(=O)=O)nc1OC | 1.58 nM
COc1ccc(N2C(=O)N(Cc3ccccc3F)c3ccccc3S2(=O)=O)cc1OC | 6.31 nM
CNc1cc(N2C(=O)N(Cc3c(F)cc(OC)cc3F)c3ncccc3S2(=O)=O)cnc1OC | 0.631 nM
COc1cc(F)c(CN2C(=O)N(c3cc(OC)nc(OC)c3)S(=O)(=O)c3ccccc32)c(F)c1 | 0.251 nM
COc1ccc(N2C(=O)N(Cc3ccccc3)c3ccccc3S2(=O)=O)cc1OC | 79.4 nM

Tested on: not listed separately
Experiment: Half life in rat liver microsomes
Assay type: ADME
Conditions: not given

half-life | Compound
9 min | COc1cc(F)c(CN2C(=O)N(c3cnc(OC)c(OC)c3)S(=O)(=O)c3ccccc32)c(F)c1
23 min | COc1cc(N2C(=O)N(Cc3c(F)cc(F)cc3F)c3ccccc3S2(=O)=O)ccn1
23 min | COc1cc(N2C(=O)N(Cc3c(F)cc(F)cc3Cl)c3ccccc3S2(=O)=O)cnc1OC

Second part, the compound before the results:

Compound | half-life
COc1ccc(N2C(=O)N(Cc3c(F)cc(F)cc3F)c3ncccc3S2(=O)=O)nc1OC | 16 min
CNc1cc(N2C(=O)N(Cc3c(F)cc(OC)cc3F)c3ncccc3S2(=O)=O)cnc1OC | 7 min
COc1cc(F)c(CN2C(=O)N(c3cc(OC)nc(OC)c3)S(=O)(=O)c3ccccc32)c(F)c1 | 16 min

Tested on: not listed separately
Experiment: Clearance in Sprague-Dawley rat at 1 mg/kg, iv
Assay type: ADME, organism-based
Conditions: in vivo

clearance | Compound
29 mL/min/kg | COc1ccc(N2C(=O)N(Cc3c(F)cc(F)cc3F)c3ncccc3S2(=O)=O)nc1OC
34 mL/min/kg | COc1cc(N2C(=O)N(Cc3c(F)cc(F)cc3Cl)c3ccccc3S2(=O)=O)cnc1OC

Tested on: not listed separately
Experiment: Volume of distribution at steady state in Sprague-Dawley rat at 1 mg/kg, iv
Assay type: ADME, organism-based
Conditions: in vivo, read-out: Vdss

Vd | Compound
2.3 L/kg | COc1ccc(N2C(=O)N(Cc3c(F)cc(F)cc3F)c3ncccc3S2(=O)=O)nc1OC
3.5 L/kg | COc1cc(N2C(=O)N(Cc3c(F)cc(F)cc3Cl)c3ccccc3S2(=O)=O)cnc1OC

Tested on: not listed separately
Experiment: Ratio of drug level in brain to plasma in Sprague-Dawley rat at 1 mg/kg, iv after 0.5 hrs
Assay type: ADME, organism-based
Conditions: read-out: BPR

Kp at 0.5 h | Compound
0.84 | COc1ccc(N2C(=O)N(Cc3c(F)cc(F)cc3F)c3ncccc3S2(=O)=O)nc1OC
0.79 | COc1cc(N2C(=O)N(Cc3c(F)cc(F)cc3Cl)c3ccccc3S2(=O)=O)cnc1OC

Tested on: not listed separately
Experiment: Ratio of drug level in cerebrospinal fluid to brain in Sprague-Dawley rat at 1 mg/kg, iv after 0.5 hrs
Assay type: ADME, organism-based, CSF/Brain
Conditions: in vivo

Ratio | Compound
0.01 | COc1ccc(N2C(=O)N(Cc3c(F)cc(F)cc3F)c3ncccc3S2(=O)=O)nc1OC
0.02 | COc1cc(N2C(=O)N(Cc3c(F)cc(F)cc3Cl)c3ccccc3S2(=O)=O)cnc1OC

Tested on: not listed separately
Experiment: Half life in Sprague-Dawley rat at 2 mg/kg, po
Assay type: ADME, organism-based
Conditions: in vivo

half-life | Compound
78 min | COc1ccc(N2C(=O)N(Cc3c(F)cc(F)cc3F)c3ncccc3S2(=O)=O)nc1OC
108 min | COc1cc(N2C(=O)N(Cc3c(F)cc(F)cc3Cl)c3ccccc3S2(=O)=O)cnc1OC

Tested on: Rattus norvegicus
Experiment: AUC (infinity) in Sprague-Dawley rat at 2 mg/kg, po
Assay type: ADME, organism-based
Set-up: dose 2 mg/kg, route oral, time infinity
Conditions: in vivo

AUC | Compound
401 ng·h/mL | COc1ccc(N2C(=O)N(Cc3c(F)cc(F)cc3F)c3ncccc3S2(=O)=O)nc1OC
300 ng·h/mL | COc1cc(N2C(=O)N(Cc3c(F)cc(F)cc3Cl)c3ccccc3S2(=O)=O)cnc1OC

Tested on: not listed separately
Experiment: Tmax in Sprague-Dawley rat at 2 mg/kg, po
Assay type: ADME, organism-based
Conditions: in vivo

Tmax | Compound
30 min | COc1ccc(N2C(=O)N(Cc3c(F)cc(F)cc3F)c3ncccc3S2(=O)=O)nc1OC
48 min | COc1cc(N2C(=O)N(Cc3c(F)cc(F)cc3Cl)c3ccccc3S2(=O)=O)cnc1OC

Tested on: not listed separately
Experiment: Oral bioavailability in Sprague-Dawley rat at 2 mg/kg
Assay type: ADME, organism-based
Conditions: in vivo

bioavailability | Compound
34% | COc1ccc(N2C(=O)N(Cc3c(F)cc(F)cc3F)c3ncccc3S2(=O)=O)nc1OC
29% | COc1cc(N2C(=O)N(Cc3c(F)cc(F)cc3Cl)c3ccccc3S2(=O)=O)cnc1OC

— ChEMBL document CHEMBL3739366, “Discovery of HTL6641, a dual orexin receptor antagonist with differentiated pharmacodynamic properties” (Medchemcomm, 2015)
